We go through three compounds from patent publication US8088827B2, “Use of irbesartan for the preparation of medicinal products that are useful for treating pulmonary hypertension” (Sanofi-Aventis, priority 2001, dated 2012).

Some results are limits rather than exact numbers.

The test system of assay [1] is pulmonary hypertension induced by injection of monocrotaline in rats. Briefly: Survival of rats with monocrotaline-induced pulmonary hypertension. It counts as in vivo, Male Sprague-Dawley rats. Here is the method: Male Sprague-Dawley rats weighing about 300 g received a subcutaneous injection of monocrotaline (MCT) at a dose of 80 mg/kg.
The treatment with irbesartan was started either 21 days or 14 days after injection of monocrotaline. Irbesartan was incorporated into the food in powder form. The control animals received food alone.
Throughout the study, the animals were examined daily.
In a first study, irbesartan was administered alone at a dose of 50 mg/kg. In a second study, irbesartan was administered alone at a dose of 30 mg/kg and in combination with hydrochlorothiazide (HCTZ): irbesartan: 30 mg/kg and HCTZ: 10 mg/kg.

The test system of assay [2] is pulmonary hypertension induced with monocrotaline. The conditions noted are these: reported by L. Cassis et al. and R. Kreutz et al.; cited from earlier work.
Setting [3] is: Study 2, treatment started on the 14th day post-MCT, irbesartan 30 mg/kg, HCTZ 10 mg/kg, alone or in combination.
The mark [4] stands for this setting: Study 1, irbesartan 50 mg/kg in food, treatment started on the 14th day after MCT 80 mg/kg s.c.
The mark [5] stands for this setting: Study 1, irbesartan 50 mg/kg in food, treatment started on the 21st day after MCT 80 mg/kg s.c.

Take `NS(=O)(=O)c1cc2c(cc1Cl)NCNS2(=O)=O` [HCTZ, hydrochlorothiazide]: in assay [1] (setting [3]), the “Survival to the 50th day” value is listed as 25% and the “Survival to the end of the study (85th day)” value came out at 4.2%.
As for `CCCCC1=NC2(CCCC2)C(=O)N1Cc1ccc(-c2ccccc2-c2nnn[nH]2)cc1` [Irbesartan], the “Survival time of the MCT-treated rats” value in assay [1] (50 mg/kg/day, either from the 21st day or from the 14th day post-MCT) is “significantly increased the survival time”. Also, in assay [1] (setting [4]), the “Survival to the 25th day” value is on record as 100% (12/12), the “Survival to the 50th day” value was 83% (10/12) and the “Survival to the end of the study (100th day)” value is given as 50% (6/12). Also, the “Survival to the end of the study (100th day)” value in assay [1] (Study 1, irbesartan 50 mg/kg in food, treatment started on the 14th day after MCT 80 mg/kg s.c., listed as irbesartan) is 50%. Also, in assay [1] (setting [5]), the “Survival to the 25th day” value is 100% (18/18), the “Survival to the 50th day” value is on record as 72% (13/18) and the “Survival to the end of the study (57th day)” value is given as 61% (11/18). Further, the “Survival to the end of the study (57th day)” value in assay [1] (Study 1, irbesartan 50 mg/kg in food, treatment started on the 21st day after MCT 80 mg/kg s.c., listed as irbesartan) is 61%. Also, the “Overall survival time estimated” value in assay [1] (Study 1, irbesartan 50 mg/kg, treatment started on the 14th day post-MCT, control group 46 days) is over 93 days. Moreover, the “Median estimated survival time” value in assay [1] (Study 2, treatment started on the 14th day post-MCT, irbesartan 30 mg/kg alone or with HCTZ 10 mg/kg) is recorded as 46 days. For the same compound, in assay [1] (setting [3]), the “Survival to the 50th day” value turned out to be 47.8% and the “Survival to the end of the study (85th day)” value is given as 0%.
With `CCCCc1nc(Cl)c(CO)n1Cc1ccc(-c2ccccc2-c2nn[nH]n2)cc1` [losartan], in assay [2], the “Effect in the monocrotaline pulmonary hypertension model” value is on record as “no effect”.
